Assays:
[1] = tested on: patient suffering from ADHD; experiment: Case Study 2: lacosamide mono-therapy in a person with ADHD; format: in vivo, human; conditions: mono-therapy for several weeks
Procedure: We conducted a second case study to validate earlier results of Case Study 1. The patient was a person suffering from ADHD (with no comorbidity such as epilepsy or bipolar disorder). The patient was treated with a lacosamide mono-therapy for several weeks based on the conventional treatment regime for lacosamide (for the treatment of epilepsy and/or bipolar disorder) for subjects weighting 50 kg or more.

[2] = tested on: children and adolescents with ADHD syndrome; experiment: Case Study 3: 'PASA' clinical questionnaire (Thinking, Mood, Sleep, Alterity); format: in vivo, human
Procedure: This study describes a series of cases of 12 children and adolescents (aged between 7 and 17 year old) treated with lacosamide. The patients were from 3 different orphanages and under the general supervision of a tutor.
We administrated doses adjusted to age and weight of each patient, in line with the therapeutic doses described herein. Specifically, lacosamide was administered to the patients following the approved treatment regimen for lacosamide (Vimpat®) in epileptic children from 4 years of age as per Table 1 above. The patients were at constant supervision of the tutor and other personnel of the orphanages.
After being selected by the tutors, children were evaluated during a clinical consultation carried out in their own institution. Through this consultation, we verified the clinical condition of each child or adolescent, their records and anamnesis, if any. We also filled out the Clinical story forms. At the same time, we performed the first ‘PASA’ Evaluation. The ‘PASA’ Test is a clinical questionnaire that was developed by the inventor of the present application (see FIG. 1 for questionnaire questions). It includes examination of Thinking (“P” for “Pensamiento”), Mood (“A” for “Animo”), Sleep (“S” for “Sueno”) and Alterity (“A” for “Alteridad”).
‘PASA’ Evaluation was repeated every 60 days after initiating the medication. The four editions of this questionnaire were compared and analysed, drawing a close-up portrait of the clinical evolution of these cases.
The overall trend is very favourable in all cases. Patients' symptoms improved in all categories. In this study, the patients were evaluated before treatment with lacosamide (evaluation 1) and every 2 months in the course of the treatment.

[3] = tested on: children and adolescents with ADHD syndrome; experiment: Case Study 3: Wisconsin Card Sorting Test (WCST) Flexibility; format: in vivo, human
Procedure: (§1) These tests offered an objective element that contributed to the establishment of the diagnosis.
(§2) Neuropsychological evaluation was repeated after six months on medication, at the end of the study. These evaluations were guided by trained neuropsychologists. Four different evaluations were conducted: Continuous Performance Test (CPT)1, STROOP-P test, Wisconsin Card sorting Test and the Non Verbal Intelligence Test.
The patients were assessed using the Wisconsin Card Sorting Test (WCST), which is used to measure higher-level cognitive processes, such as attention, perseverance, abstract thinking, and set shifting. It is particularly used in clinical fields to measure perseverative behaviours that refer to an individual's insistence on wrong behaviour.

[4] = tested on: children and adolescents with ADHD syndrome; experiment: Case Study 3: STROOP-P test; format: in vivo, human
Procedure: as §1, §2
The patients were assessed using the STROOP-P test, which is used to assess the ability to inhibit cognitive interference that occurs when the processing of a specific stimulus feature impedes the simultaneous processing of a second stimulus attribute, well-known as the Stroop Effect.

[5] = tested on: children and adolescents with ADHD syndrome; experiment: Case Study 3: IQ test prior to and after treatment; format: in vivo, human; conditions: for IQ: Post-treatment, patient
Procedure: IQ was tested prior to and after treatment.

[6] = tested on: children and adolescents with ADHD syndrome; experiment: Case Study 3: Tutors evaluation pre to post treatment (DSM-V questionnaire); format: in vivo, human
Procedure: The Tutors Pre-Post Evaluation (self-administrated) was performed at the end of the study. This assessment required the person responsible for the patient's everyday life and care to evaluate the progression through the period of the study, including intellectual and behavioural changes.
The tutors have evaluated the patients using the DSM-V questionnaire, which is typically used as a standard to classify mental disorders by mental health professionals in the United States.

[7] = tested on: children and adolescents with ADHD syndrome; experiment: Case Study 3: neuropsychological results analysis (executive function, attention); format: in vivo, human; conditions: after six months on medication
Procedure: as §2
We measured pedagogical values and characteristics of the executive function (Reasoning, Cognitive Flexibility, Attentional function, Intellectual Quotient, impulse inhibition, Perseveration resistance) throughout the course of the treatment with lacosamide.

[8] = tested on: voltage-gated sodium channels; conditions: cited from earlier work
[9] = tested on: voltage-gated calcium channels (L-, N-, P/Q, T-type channels); conditions: cited from earlier work
[10] = tested on: AMPA, kainate, NMDA, GABAA, GABAB, dopaminergic, serotonergic, adrenergic, muscarinic or cannabinoid receptors; conditions: cited from earlier work
[11] = tested on: potassium or calcium currents; conditions: cited from earlier work
[12] = tested on: reuptake of norepinephrine, dopamine, and serotonin; conditions: cited from earlier work
GABA transaminase = GABA transaminase (Homo sapiens, UniProt P80404); conditions: cited from earlier work
Sequence of GABA transaminase (P80404 29-500, species assumed): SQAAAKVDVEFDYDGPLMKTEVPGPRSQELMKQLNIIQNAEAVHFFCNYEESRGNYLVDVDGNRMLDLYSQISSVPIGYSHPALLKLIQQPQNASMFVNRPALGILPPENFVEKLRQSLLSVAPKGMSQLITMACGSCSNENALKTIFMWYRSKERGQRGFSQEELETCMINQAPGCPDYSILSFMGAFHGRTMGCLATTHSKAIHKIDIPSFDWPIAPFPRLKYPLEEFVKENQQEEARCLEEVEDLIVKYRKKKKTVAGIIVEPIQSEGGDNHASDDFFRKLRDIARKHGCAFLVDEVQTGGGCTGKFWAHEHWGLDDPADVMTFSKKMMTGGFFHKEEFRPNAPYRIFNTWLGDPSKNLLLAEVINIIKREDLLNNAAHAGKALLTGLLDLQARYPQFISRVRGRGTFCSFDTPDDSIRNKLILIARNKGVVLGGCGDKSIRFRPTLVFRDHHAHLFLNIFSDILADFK

[13] = after treatment, ~75% at the beginning

SMILES: COC[C@@H](NC(C)=O)C(=O)NCc1ccccc1 [lacosamide, (2R)-2-(acetylamino)-N-benzyl-3-methoxypropanamide]
- ADHD symptomatology [1]: slowly regressed
- cognitive functionality [1]: significant improvement
- Mood and Sleep symptoms in most patients ([2]; 12 patients, 6 months): complete or nearly complete alleviation of the symptoms
- all tested 'PASA' categories (Sleep Activity, Thoughts, Mood) ([2]; 12 patients, 6 months): positive impact
- patients with depressive unjustified feelings ([2]; after six months of treatment, from 25%): 0%
- patients with irritability ([2]; after treatment, from 33.3%): 16.7%
- patients with cenesthesia [2, 13]: 8.3%
- patients with hyper emotion [2, 13]: 25%
- patients with hypomania [2, 13]: 16.7%
- patients with lethargy [2, 13]: 8.3%
- patients with mood change [2, 13]: 0%
- patients with tiredness [2, 13]: 8.3%
- Trend of Thought: Disordered ([2]; end of study (6 months), 67% of 12 patients before treatment): completely disappeared
- Trend of Thought: Overabundant ([2]; end of study (6 months), 83% of 12 patients before treatment): completely disappeared
- distressing thoughts ([2]; end of study, 17% of patients at the beginning): completely eliminated
- patients with difficulties with falling asleep ([2]; end of study, from 75%): 0%
- patients with sleep interruption ([2]; end of study, from 83%): 8.3%
- patients with sudden off-sense disconnections (spacing out) ([2]; end of study, initially 50%): 33%
- patients with dysphasia (inability of sustaining attention or understanding a long phrase) ([2]; end of study, initially 83%): 42%
- patients with second thoughts disturbing concentration ([2]; end of study, initially 83%): 42%
- patients with cenesthesic presences (sleep) ([2]; end of the trial period, from 75%): 8.3%
- general state after waking up, sleeping without interruptions and ease of sleep ([2]; four evaluations over 6 months): improvement
- realistic dreams ([2]; four evaluations over 6 months): not significantly affected
- patients with blocking thoughts ([2]; in the course of treatment, 50% at the beginning): 25%
- Hypercritical thinking ([2]; over the course of the study): small improvement
- Tachypsychia ([2]; over the course of the study): small improvement
- cognitive flexibility ([3]; after six months on medication): improving
- patients with Average and High Average scores, WCST Flexibility ([3]; second evaluation, 25% in the first evaluation): 50%
- patients in the lowest two categories (Mild and Severe Deterioration), WCST Flexibility ([3]; second evaluation, 41.7% in the first evaluation): 16.6%
- ability to inhibit cognitive interference ([4]; measured in both cerebral hemispheres): positive but to a limited extent
- patients with Average result, STROOP-P ([4]; second test, 8.3% in the first evaluation): 25%
- patients with Severe Deterioration, STROOP-P ([4]; second test, 25% initially): 8.3%
- patients who maintained previous IQ levels ([5]; 12 patients tested): 23%
- patients who raised their IQ values ([5]; 12 patients tested): 77%
- patients with a lowering of the IQ value ([5]; 12 patients tested): In none of the patients
- IQ ([5]; 2nd High School, Pre-treatment CI-80): CI-90
- IQ ([5]; 2nd High School, Pre-treatment CI-99): CI-112
- IQ ([5]; 2nd Primary, Pre-treatment CI-94): CI-106
- IQ ([5]; 3rd Primary, Pre-treatment CI-82): CI-82
- IQ ([5]; 3rd Primary, Pre-treatment CI-117): CI-117
- IQ ([5]; 5th Primary, Pre-treatment CI-81): CI-91
- IQ ([5]; 5th Primary, Pre-treatment CI-91): CI-95
- IQ ([5]; 5th Primary, Pre-treatment CI-95): CI-104
- IQ ([5]; 5th Primary, Pre-treatment CI-111): CI-111
- IQ ([5]; 6th Primary, Pre-treatment CI-93): CI-95
- IQ ([5]; 7th Primary, Pre-treatment CI-87): CI-91
- IQ ([5]; Bachelor, Pre-treatment CI-108): CI-114
- IQ progression on average ([5]; subgroup of 33% of the patients): four
- IQ progression average ([5]; subgroup of 40% of the patients): around 11±2 points
- patients in the subgroup with the smaller IQ progression ([5]; subgroup that progressed on average by four points): 33%
- patients in the subgroup with the larger IQ progression ([5]; subgroup with progression average of around 11±2 points): 40%
- global IQ increase ([5]; sum for 12 patients tested): 60 points
- behaviour, tutors' DSM-V questionnaire [6]: significantly improved across all tested elements
- Visual Attention, Perseveration Resistance and Impulse Inhibition [7]: did not show the expected improvement
- indicator Attentional Difficulty [7]: improvement
- variables of distraction and impulsivity [7]: no impact
- fast inactivation of voltage-gated sodium channels [8]: without affecting
- slow inactivation of voltage-gated sodium channels [8]: enhances
- inhibition of voltage-gated calcium channels (L-, N-, P/Q, T-type) [9]: not to inhibit
- effect on AMPA, kainate, NMDA, GABAA, GABAB, dopaminergic, serotonergic, adrenergic, muscarinic or cannabinoid receptors [10]: does not affect
- block of potassium or calcium currents [11]: does not block
- modulation of reuptake of norepinephrine, dopamine, and serotonin [12]: does not modulate
- inhibition of GABA transaminase (GABA transaminase): does not inhibit

Reference: patent publication US20220257541A1, “Lacosamide for the Treatment of ADD/ADHD” (priority 2019, published 2022)
